“Also recorded” adds a separate entry of the source.
Assays:
[1] = system: 5F cells (5F HSPCs); experiment: Primary screen of Cayman epigenetic library in 5F cells, stromal-free T cell differentiation (proT readout); format: cell-based, human; conditions: for CD5+ CD7+ %: 5F cells, control cells 11.60%; for CD5+ CD7+ % / Z score: e.g., at 500 nM; for Z score: calculated from the number of T progenitors after treatment, Z score greater than 3 = primary hit; for proT cells generated from 5F HSPCs after treatment with primary hits (fold change / number): first screen, FIG. 8
Description: FIG. 6 is a schematic showing a primary screen for small molecule inhibitors of epigenetic factors that promote T cell specification, using the stromal-free T cell differentiation methods as described herein. “5F cells” refer to cells expressing 5 transcription factors (HOXA9, ERG, RORA, SOX4, and MYB). The Cayman epigenetic library contains more than 140 small molecules that are known to modulate the activity of a variety of epigenetic ‘writers and erasers’ and ‘reader’ proteins. It may include compounds that modulate the activity of methyltransferases, demethylases, histone acetyltransferases, histone deacetylases, and acetylated histone binding proteins; see e.g., caymanchem.com/product/11076/epigenetics-screening-library-(96-well).
FIG. 7 is a scatterplot showing identification of primary hits from the screen described in FIG. 6. Z scores were calculated for all the small molecules based on the number of T progenitors after treatment. Any small molecule with a Z score greater that 3 was considered as a primary hit. See e.g., Table 2.
FIG. 8 is a bar chart showing fold change of the proT cells generated from 5F HSPCs after treatment with primary hits identified in FIG. 7 (see e.g., Table 2).
(§1) A group of epigenetic regulators were tested for their ability to promote T cell differentiation. […] UNCO224 is an inhibitor of G9a/GLP, so a variety of other G9a/GLP inhibitors were tested.

[2] = system: iPSC-derived CD34+ hemogenic endothelial (HE) cells; experiment: Second screen and dose response in wild type iPSC-derived CD34+ hemogenic endothelial (HE) cells, stromal-free T cell differentiation; format: cell-based, human; conditions: for proT cells generated from CD34+ HE cells after treatment with G9a inhibitors at different doses: FIG. 13B-13F; for Exemplary effective dose(s): promotion of T cell differentiation from CD34+ HE cells, 13B-13F
Procedure: FIG. 9 is a schematic showing a second screen using wild type iPSC-derived CD34+ hemogenic endothelial (HE) cells (not 5F HSPCs, e.g., as used in […] and Table 2), to test small molecule inhibitors of epigenetic factors for promotion of T cell differentiation.
FIG. 10A-10B is a series of graphs showing the results of the screen from FIG. 9. FIG. 10A is a scatterplot of Z scores, which were calculated for all the small molecules based on the number of T progenitors after treatment. Any small molecule with a Z score greater that 3 was considered as a primary hit. FIG. 10B is a bar graph showing verification of the primary hits. Primary hits were tested in triplicate.
FIG. 12A is a schematic summarizing the experiments (see e.g., FIG. 6-11, Table 2). FIG. 12B is a bar chart showing fold change of proT cells generated from CD34^+ HE cells after treated with UNCO224 at different doses.
FIG. 13A-13F is a series of schematics and graphs showing that G9 inhibitors promote T cell differentiation using the stromal-free differentiation methods as described herein. FIG. 13A is a schematic summarizing the experiments (see e.g., FIG. 6-12, Table 2). FIGS. 13B-13E are a bar charts showing fold change of proT cells generated from CD34^+ HE cells after treatment with other G9a inhibitors at different doses.
as §1

[3] = system: class I HDAC (e.g., HDAC1, HDAC2, HDAC3); conditions: cited from earlier work
[4] = system: HDAC; conditions: pan-HDAC, with exception for HDAC6; cited from earlier work
[5] = target: class III isoenzyme SIRT1 (Homo sapiens, UniProt Q96EB6); conditions: cited from earlier work
Sequence of class III isoenzyme SIRT1 (Q96EB6 whole entry): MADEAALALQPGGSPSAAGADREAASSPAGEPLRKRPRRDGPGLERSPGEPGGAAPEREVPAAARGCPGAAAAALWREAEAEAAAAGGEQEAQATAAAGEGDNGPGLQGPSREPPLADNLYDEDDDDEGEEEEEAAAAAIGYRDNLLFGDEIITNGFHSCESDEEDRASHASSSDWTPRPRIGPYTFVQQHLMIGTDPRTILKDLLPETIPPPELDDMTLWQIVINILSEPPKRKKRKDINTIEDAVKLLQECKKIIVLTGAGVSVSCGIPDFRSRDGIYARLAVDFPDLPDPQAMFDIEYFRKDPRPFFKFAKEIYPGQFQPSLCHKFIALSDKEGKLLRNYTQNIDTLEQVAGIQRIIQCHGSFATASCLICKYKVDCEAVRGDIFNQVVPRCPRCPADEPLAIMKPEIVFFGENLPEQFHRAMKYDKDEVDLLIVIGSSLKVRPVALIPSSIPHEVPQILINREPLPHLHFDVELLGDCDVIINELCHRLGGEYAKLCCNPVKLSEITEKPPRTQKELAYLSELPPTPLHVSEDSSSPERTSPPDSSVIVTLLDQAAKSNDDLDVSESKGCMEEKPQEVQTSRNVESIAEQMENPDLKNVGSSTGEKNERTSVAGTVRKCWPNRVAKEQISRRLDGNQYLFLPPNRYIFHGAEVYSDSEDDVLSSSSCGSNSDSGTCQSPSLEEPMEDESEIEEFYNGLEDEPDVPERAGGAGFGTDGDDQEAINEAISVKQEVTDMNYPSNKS

[6] = system: CD34+ CD45+ HSPC cells; experiment: T cell differentiation of CD34+ CD45+ HSPCs after UNC0224 treatment; format: cell-based, human
Procedure: (§2) FIG. 14A-14C is a series of schematics and graphs showing that UNCO224 enhances T cell commitment at expense of erythroid/myeloid potential. FIG. 14A is a schematic showing a test of whether UNCO224 specifically affects T cell differentiation. iPSC-derived CD34+ HE cells were treated with UNCO224 and differentiated into CD34+ CD45+ hematopoietic stem and progenitor cells (HSPC). These HSPCs were used to generate T cells, erythroid cells, and myeloid cells to determine their multipotency. FIG. 14B is a bar chart showing fold change of proT cells generated from CD34+ CD45+ HSPC cells after treatment with UNCO224 (500 nM). […] FIG. 14C is a bar chart showing number of different types of colonies generated from CD34+ CD45+ HSPCs in a colony-forming unit (CFU) assay. E, erythroid; M, macrophage; G, granulocyte; GM, granulocyte/macrophage; GEMM, granulocyte/erythroid/macrophage/megakaryocyte.
FIG. 15A-15C is a series of graphs showing that UNCO224 promotes T cell specification rather than cell proliferation. FIG. 14B is a bar chart showing fold change of proT cells generated from CD34+ CD45+ HSPC cells after treatment with UNCO224 (500 nM). […] FIG. 14B is a bar chart showing fold change of total cell numbers after 14 days of T cell differentiation of CD34+ CD45+ HSPCs treated with DMSO or UNCO224. […] FIG. 14C is a bar chart showing the percentage of proT cells generated from CD34+ CD45+ HSPCs treated with DMSO or UNCO224. […] N=3, **** P≤0.0001.
(§3) UNCO224 enhanced T cell commitment at expense of erythroid/myeloid potential. […] UNCO224 also promoted T cell specification rather than cell proliferation. […] Without wishing to be bound by theory, it is anticipated that H3K9 methylation mediates repression of lymphoid genes. As such, treatment with inhibitors of H3K9 methylation (see e.g., FIG. 6-16, Tables 2-3) promotes T cell differentiation, e.g., when using stromal-free T cell differentiation methods as described herein. Such H3K9 methylation inhibitors can be used in place of, or in combination with, inhibition of histone methyltransferases (e.g., EZH1 knockdown).

[7] = system: CD34+ CD45+ HSPCs; experiment: Colony-forming unit (CFU) assay of CD34+ CD45+ HSPCs; format: cell-based, human; conditions: FIG. 14C
Procedure: as §2
as §3, with “Such H3K9 methylation inhibitors can be used in place of, or in combination with, inhibition of histone methyltransferases (e.g., EZH1 knockdown).” left out

[8] = system: MDA-MB-231 cells; conditions: in MDA-MB-231 cells; cited from earlier work

Compound | CD5+ CD7+ % [1] [%] | Z score [1] | also measured
O=C(CCCCCCC(=O)Nc1ccc(I)cc1)NO [4-iodo-SAHA] | 25.3 | 5.895 | 
COc1cc2nc(N3CCCN(C)CC3)nc(NC3CCN(Cc4ccccc4)CC3)c2cc1OC [BIX01294] |  |  | proT cells generated from CD34+ HE cells after treatment with G9a inhibitors at different doses [2]: capable of promoting T cell differentiation; also recorded: significantly increased; Exemplary effective dose(s) ([2]; FIG. 12B): 200 nM
COC(=O)c1ccc2c(c1)nc(NC(=O)c1ccccc1)n2CCCc1ccccc1 [BRD4770] |  |  | proT cells generated from CD34+ HE cells after treatment with G9a inhibitors at different doses [2]: capable of promoting T cell differentiation; also recorded: significantly increased; Exemplary effective dose(s) ([2]; FIG. 12B): 200 nM
CN(C)c1ccc(C(=O)NCCCCCC(=O)NO)cc1 [CAY10398] | 36.9 | 4.181 | 
COCCCn1c(N)c(C(=O)NC2CCCC2)c2nc3ccccc3nc21 [CAY10591] | 25.9 | 8.576 | proT cells generated from 5F HSPCs after treatment with primary hits (fold change / number) [1]: significantly increased; also recorded: confirmed to promote T cell specification
Cn1cc(/C=C/C(=O)c2cccc(F)c2)cc1/C=C/C(=O)NO [MC1568] | 14.0 | 5.829 | proT cells generated from 5F HSPCs after treatment with primary hits (fold change / number) [1]: significantly increased; also recorded: confirmed to promote T cell specification; inhibition of class I HDAC activity [3]: Class II HDAC (e.g., HDAC4 and HDAC5) inhibitor. Displays no inhibition of class I HDAC activity (e.g., HDAC1, HDAC2, HDAC3).
O=C(CCCCCCC(=O)Nc1cccnc1)NO [Pyroxamide] | 11.6 | 3.122 | 
CNCc1ccc(-c2[nH]c3cc(F)cc4c3c2CCNC4=O)cc1 [Rucaparib] | 37.2 | 0.4679 | 
O=C(CCCCCCC(=O)Nc1ccccc1)NO [SAHA, suberoylanilide hydroxamic acid] | 34.7 | 7.987 | 
CCCCc1nc2cc(/C=C/C(=O)NO)ccc2n1CCN(CC)CC [SB939] | 39.4 | 5.042 | IC50 [4]: 0.04 to 0.14 µM; activity against SIRT1 [5]: no activity
Cc1cc(Nc2ccc(NC(=O)c3ccc(Nc4ccnc5ccccc45)cc3)cc2)nc(N)n1 [SGI-1027] | 19.9 | 0.09357 | 
O=C(CCCCCN1C(=O)c2cccc3cccc(c23)C1=O)NO [Scriptaid] | 19.7 | 3.857 | 
COc1cc2c(NC3CCN(C)CC3)nc(N3CCCN(C)CC3)nc2cc1OCCCN(C)C [UNC0224] | 15.0 | 3.475 | fold change of CD5+ CD7+ proT cells generated from CD34+ CD45+ HSPC cells ([6]; UNC0224 500 nM vs DMSO, FIG. 14B/15A): significant increase; fold change of total cell numbers ([6]; after 14 days of T cell differentiation, vs DMSO): significant decrease; percentage of CD5+ CD7+ proT cells ([6]; vs DMSO, N=3): significant increase; proT cells generated from CD34+ HE cells after treatment with G9a inhibitors at different doses [2]: capable of promoting T cell differentiation; fold change of proT cells generated from CD34+ HE cells at different doses ([2]; dose response, FIG. 12B): dose-dependent manner; proT cells generated from CD34+ HE cells (verification of primary hits) ([2]; second screen, primary hits tested in triplicate, FIG. 10B, listed as UNCO224): significantly increased; also recorded: significant increase; proT cells generated from 5F HSPCs after treatment with primary hits (fold change / number) ([1]; listed as UNCO224): significantly increased; also recorded: confirmed to promote T cell specification; number of erythroid or myeloid lineage colonies [7]: significant decrease
COc1cc2c(NC3CCN(CC4CCCCC4)CC3)nc(N3CCCN(C(C)C)CC3)nc2cc1OCCCN1CCCCC1 [UNC0631] |  |  | IC50 [8]: 0.025 µM
COc1cc2c(NC3CCN(C(C)C)CC3)nc(C3CCCCC3)nc2cc1OCCCN1CCCC1 [UNC0638] |  |  | proT cells generated from CD34+ HE cells after treatment with G9a inhibitors at different doses [2]: capable of promoting T cell differentiation; also recorded: significantly increased; Exemplary effective dose(s) ([2]; FIG. 12B): 8 nM
COc1cc2c(NC3CCN(C(C)C)CC3)nc(N3CCC(F)(F)CC3)nc2cc1OCCCN1CCCC1 [UNC0642] |  |  | proT cells generated from CD34+ HE cells after treatment with G9a inhibitors at different doses [2]: capable of promoting T cell differentiation; also recorded: significantly increased; Exemplary effective dose(s) ([2]; FIG. 12B): 40 nM
COc1cc2c(NC3CCN(C4CCCCC4)CC3)nc(N3CCCN(C(C)C)CC3)nc2cc1OCCCN1CCCCC1 [UNC0646] |  |  | IC50 [8]: 0.026 µM
CC(C)C(C(=O)Nc1ccc(C(=O)NO)cc1)c1ccccc1 (stereo not shown) [s-HDAC-42] | 43.2 | 4.263 | 
Oxamflatin [Oxaflatin] | 12.4 | 6.54 | 

Reference: US20230073449A1, “STROMA-FREE T CELL DIFFERENTIATION FROM HUMAN PLURIPOTENT STEM CELLS” (THE CHILDREN'S MEDICAL CENTER CORPORATION, priority 2020, published 2023)
